Results: US9359308B2, “Pyrazine kinase inhibitors” (Portola Pharmaceuticals, Inc., priority 2011, dated 2016)

Target: T1, full length active recombinant SYK enzyme (Homo sapiens, UniProt P43405)
T1 construct: full length active recombinant SYK enzyme (Millipore, Calif.); purchased Millipore
Assay: Inhibition of Syk tyrosine phosphorylation activity (LANCE TR-FRET kinase assay)
Format: biochemical
Conditions: activity in the Syk assays, class symbols
Text: The in vitro and in vivo human Syk activities of the inventive compounds can be determined by various procedures known in the art, such as a test for their ability to inhibit the activity of human plasma Syk. […] The IC50 value is the concentration (in nM) of the compound required to provide 50% inhibition of human Syk proteolytic activity.
An in vitro assay for detecting and measuring inhibition activity against Syk is as follows:
Inhibition of Syk Tyrosine Phosphorylation Activity
Potency of candidate molecules for inhibiting Syk tyrosine phosphorylation activity is assessed by measuring the ability of a test compound to inhibit Syk-mediated tyrosine phosphorylation of a Syk-specific substrate.
SYK tyrosine phosphorylation activity is measured using the LANCE™ Technology developed by Perkin Elmer Life and Analytical Sciences (Boston, Mass.). LANCE™ refers to homogeneous time resolved fluorometry applications using techniques such as time-resolved fluorescence resonance energy transfer assay (TR-FRET) (see generally for procedures in Perkin Elmer Application Note-How to Optimize a Tyrosine Kinase Assay Using Time Resolved Fluorescence-Based LANCE Detection, wwww.perkinelmer.com/lifesciences). The assay principle involves detection of a phosphorylated substrate using energy transfer from a phosphospecific europium-labeled antibody to streptavidin-allophycocyanin as an acceptor.
To test the ability of candidate molecules to inhibit SYK tyrosine phosphorylation activity, molecules are reconstituted in 30% DMSO and serially diluted 1:3 with the final dilution containing DMSO in the absence of the candidate molecule. The final DMSO concentration in the assay is 3%. Kinase assays are performed as a two part reaction. The first reaction is a kinase reaction and which comprises of a candidate molecule, full length active recombinant SYK enzyme (Millipore, Calif.) and biotin-labeled SYK-specific substrate biotin-DEEDYESP-OH. The second reaction involves termination of the kinase reaction and the simultaneous addition of the detection reagents-europium-labeled anti-phosphotyrosine reagent (Eu-W1024-PY100, Perkin Elmer, Boston, Mass.) and Streptavidin-Allophycocyanin detection reagent (SA-APC, Prozyme, CA). The kinase reaction is performed in a black U-bottom 96-well microtitre plate. The final reaction volume is 50 μL and contains a final concentration of 1 nM active SYK enzyme, 550 nM SYK-substrate, and 100 μM ATP diluted in a buffer containing 50 mM Tris pH 7.5, 5 mM MgCl2, and 1 mM DTT. The reaction is allowed to proceed for 1 hour at room temperature. The quench buffer contains 100 mM Tris pH 7.5, 300 mM NaCl2, 20 mM EDTA, 0.02% Brij35, and 0.5% BSA. The detection reagents are added to the reaction mixture at the following dilutions-1:500 for Eu-W1024-PY100 and 1:250 for SA-APC. The kinase reaction is terminated by the addition of 50 μL quench buffer containing the detection reagents. The detection is allowed to proceed for 1 hr at room temperature. Detection of the phosphorlated substrate in the absence and presence of inhibitors is measured in the TR-FRET instrument, Analyst HT (Molecular Probes, Sunnyvale, Calif.) and the condition for measurements are set up using CriterionHost Release 2.0 (Molecular Probes, Sunnyvale, Calif.). The settings used are a follows: excitation 360 nm, emission 665-7.5 nm, beam splitter 350 nm 50/50, flash 100 pulses, delay 60 us, integration 400 us, z-height 2 mm. Inhibition of SYK-tyrosine kinase activity is calculated as the maximum response observed in the presence of inhibitor, compared to that in the absence of inhibitor. IC50s were derived by non-linear regression analysis.

| SMILES | IC50 [nM] |
| --- | --- |
| NC(=O)c1ncc(N[C@@H]2CCCC[C@@H]2N)nc1Nc1ccc2[nH]ncc2c1 (racemic) [Example 54, cis-3-(1H-indazol-5-ylamino)-5-(2-aminocyclohexylamino)pyrazine-2-carboxamide] | < 1 |
| CC(C)C[C@@H](Nc1cnc(C(N)=O)c(Nc2cnc3ccccc3c2)n1)C(N)=O [Example 1, (R)-5-(1-amino-4-methyl-1-oxopentan-2-ylamino)-3-(quinolin-3-ylamino)pyrazine-2-carboxamide] | 1 to 10 |
| CC(C)C[C@@H](Nc1cnc(C(N)=O)c(Nc2ccc3ncccc3c2)n1)C(N)=O [Example 2, (R)-5-(1-amino-4-methyl-1-oxopentan-2-ylamino)-3-(quinolin-6-ylamino)pyrazine-2-carboxamide] | 1 to 10 |
| CC(C)C[C@@H](Nc1cnc(C(N)=O)c(Nc2cccc3c2ccn3C)n1)C(N)=O [Example 3, (R)-5-(1-amino-4-methyl-1-oxopentan-2-ylamino)-3-(1-methyl-1H-indol-4-ylamino)pyrazine-2-carboxamide] | 1 to 10 |
| C[C@@H](Nc1cnc(C(N)=O)c(Nc2ccc3ncccc3c2)n1)C(N)=O [Example 4, (R)-5-(1-amino-1-oxopropan-2-ylamino)-3-(quinolin-6-ylamino)pyrazine-2-carboxamide] | 1 to 10 |
| C[C@@H](Nc1cnc(C(N)=O)c(Nc2cnc3ccccc3c2)n1)C(N)=O [Example 5, (R)-5-(1-amino-1-oxopropan-2-ylamino)-3-(quinolin-3-ylamino)pyrazine-2-carboxamide] | 1 to 10 |
| NC(=O)c1ncc(NC(CC(F)(F)F)C(N)=O)nc1Nc1ccc2ncccc2c1 (stereo not shown) [Example 6, 5-(1-amino-4,4,4-trifluoro-1-oxobutan-2-ylamino)-3-(quinolin-6-ylamino)pyrazine-2-carboxamide] | 1 to 10 |
| NC(=O)c1ncc(N[C@H](CC2CC2)C(N)=O)nc1Nc1cnc2ccccc2c1 [Example 7, (R)-5-(1-amino-3-cyclopropyl-1-oxopropan-2-ylamino)-3-(quinolin-3-ylamino)pyrazine-2-carboxamide] | 1 to 10 |
| NC(=O)c1ncc(N[C@H](CC2CC2)C(N)=O)nc1Nc1ccc2ncccc2c1 [Example 8, (R)-5-(1-amino-3-cyclopropyl-1-oxopropan-2-ylamino)-3-(quinolin-6-ylamino)pyrazine-2-carboxamide] | 1 to 10 |
| NC(=O)c1ncc(N[C@H](CC2CC2)C(N)=O)nc1Nc1csc2ncccc12 [Example 9, (R)-5-(1-amino-3-cyclopropyl-1-oxopropan-2-ylamino)-3-(thieno[2,3-b]pyridin-3-ylamino)pyrazine-2-carboxamide] | 1 to 10 |
| NC(=O)c1ncc(N[C@@H]2CCCC[C@@H]2N)nc1Nc1cccc(-n2nccn2)c1 [Example 10, 3-(3-(2H-1,2,3-triazol-2-yl)phenylamino)-5-((1R,2S)-2-aminocyclohexylamino)pyrazine-2-carboxamide] | 1 to 10 |
| Cn1ccc2c(Nc3nc(N[C@@H]4CCCC[C@@H]4N)cnc3C(N)=O)cccc21 [Example 11, 5-((1R,2S)-2-aminocyclohexylamino)-3-(1-methyl-1H-indol-4-ylamino)pyrazine-2-carboxamide] | 1 to 10 |
| NC(=O)c1ncc(N[C@@H]2CCCC[C@@H]2N)nc1Nc1cccc(-c2ncccn2)c1 [Example 12, 5-((1R,2S)-2-aminocyclohexylamino)-3-(3-(pyrimidin-2-yl)phenylamino)pyrazine-2-carboxamide] | 1 to 10 |
| CC(C)C[C@@H](Nc1cnc(C(N)=O)c(Nc2ccc(C(N)=O)cc2)n1)C(N)=O [Example 20, (R)-5-(1-amino-4-methyl-1-oxopentan-2-ylamino)-3-(4-carbamoylphenylamino)pyrazine-2-carboxamide] | 1 to 10 |
| CC(C)C[C@@H](Nc1cnc(C(N)=O)c(Nc2ccc(-c3ccno3)cc2)n1)C(N)=O [Example 21, (R)-5-(1-amino-4-methyl-1-oxopentan-2-ylamino)-3-(4-(isoxazol-5-yl)phenylamino)pyrazine-2-carboxamide] | 1 to 10 |
| Cc1cc(Nc2nc(N[C@H](CC(C)C)C(N)=O)cnc2C(N)=O)sn1 [Example 22, (R)-5-(1-amino-4-methyl-1-oxopentan-2-ylamino)-3-(3-methylisothiazol-5-ylamino)pyrazine-2-carboxamide] | 1 to 10 |
| CC[C@@H](Nc1cnc(C(N)=O)c(Nc2ccc(-c3nnco3)cc2)n1)C(N)=O [Example 27, (R)-3-(4-(1,3,4-oxadiazol-2-yl)phenylamino)-5-(1-amino-1-oxobutan-2-ylamino)pyrazine-2-carboxamide] | 10 to 100 |

Other lines, results leading:

| IC50 [nM] | SMILES |
| --- | --- |
| 1 to 10 | NC(=O)c1ccc(Nc2nc(N[C@@H]3CCCC[C@@H]3N)cnc2C(N)=O)cc1 [Example 13, 5-((1R,2S)-2-aminocyclohexylamino)-3-(4-carbamoylphenylamino)pyrazine-2-carboxamide] |
| 1 to 10 | NC(=O)c1ncc(N[C@@H]2CCCC(F)(F)[C@@H]2N)nc1Nc1ccc2ncccc2c1 [Example 14, 5-((1R,2R)-2-amino-3,3-difluorocyclohexylamino)-3-(quinolin-6-ylamino)pyrazine-2-carboxamide] |
| 10 to 100 | NC(=O)c1ncc(N[C@@H]2CCCC(F)(F)[C@@H]2N)nc1Nc1cccc(-n2nccn2)c1 [Example 15, 3-(3-(2H-1,2,3-triazol-2-yl)phenylamino)-5-((1R,2R)-2-amino-3,3-difluorocyclohexylamino)pyrazine-2-carboxamide] |
| 100 to 1000 | NC(=O)c1ncc(N[C@@H]2CCCC(F)(F)[C@@H]2N)nc1Nc1cccc(-c2ncccn2)c1 [Example 16, 5-((1R,2R)-2-amino-3,3-difluorocyclohexylamino)-3-(3-(pyrimidin-2-yl)phenylamino)pyrazine-2-carboxamide] |
| 10 to 100 | NC(=O)c1ncc(N[C@@H]2CCCC(F)(F)[C@@H]2N)nc1Nc1ccccc1 [Example 17, 5-((1R,2R)-2-amino-3,3-difluorocyclohexylamino)-3-(phenylamino)pyrazine-2-carboxamide] |
| 10 to 100 | NC(=O)c1ncc(N[C@@H]2CCCC(F)(F)[C@@H]2N)nc1Nc1ccc(-c2ccno2)cc1 [Example 18, 5-((1R,2R)-2-amino-3,3-difluorocyclohexylamino)-3-(4-(isoxazol-5-yl)phenylamino)pyrazine-2-carboxamide] |
| 10 to 100 | NC(=O)c1ccc(Nc2nc(N[C@@H]3CCCC(F)(F)[C@@H]3N)cnc2C(N)=O)cc1 [Example 19, 5-((1R,2R)-2-amino-3,3-difluorocyclohexylamino)-3-(4-carbamoylphenylamino)pyrazine-2-carboxamide] |
| 10 to 100 | Cc1cc(Nc2nc(N[C@@H]3CCCC(F)(F)[C@@H]3N)cnc2C(N)=O)sn1 [Example 23, 5-((1R,2R)-2-amino-3,3-difluorocyclohexylamino)-3-(3-methylisothiazol-5-ylamino)pyrazine-2-carboxamide] |
| 10 to 100 | COc1ccc(Nc2nc(N[C@@H]3CCCC(F)(F)[C@@H]3N)cnc2C(N)=O)cc1 [Example 24, 5-((1R,2R)-2-amino-3,3-difluorocyclohexylamino)-3-(4-methoxyphenylamino)pyrazine-2-carboxamide] |
| 1 to 10 | NC(=O)c1ncc(N[C@@H]2CCCC(F)(F)[C@@H]2N)nc1Nc1ccc2c(c1)CCC(=O)N2 [Example 25, 5-((1R,2R)-2-amino-3,3-difluorocyclohexylamino)-3-(2-oxo-1,2,3,4-tetrahydroquinolin-6-ylamino)pyrazine-2-carboxamide] |
| 10 to 100 | NC(=O)c1ncc(N[C@@H]2CCCC(F)(F)[C@@H]2N)nc1Nc1ccc(-c2ccncc2)cc1 [Example 26, 5-((1R,2R)-2-amino-3,3-difluorocyclohexylamino)-3-(4-(pyridin-4-yl)phenylamino)pyrazine-2-carboxamide] |
